Measured values: patent EP0953357A1, “NEPHROTROPIC DRUGS” (Drug Delivery System Institute, Ltd., priority 1997, dated 1998)
Where two headings read alike, the source gives them in different places.

Key:
[1] = Renal selectivity (organ distribution) of thioglucoside-modified products (Test 6)
Description: (§1) The organ clearance was determined by the following equation.
Organ distribution was studied on Glc-S-C8 and, in addition, thioglucoside modification products of AVP, tryptamine, NBD as a fluorescent dye, doxorubicin as an anticancer agent and the like. Glc-S-C8 (the labeled product was prepared by catalytic exchange with ^3H gas; the specific activity 40.7 GBq/mmol), AVP derivatives, and tryptamine derivatives were converted to ^3H-labeled product and then studied on organ selectivity in the same manner as in Test 1. For the NBD derivatives, an experiment on distribution was carried out under conditions of dose 10 nmol/kg and 3 min. The vital sample was deproteinized with acetonitrile, subjected to separation by reversed phase liquid chromatography, and then quantitatively determined by fluorescence detection. DXR and derivatives thereof were administered at a dose of 50 nmol/kg, and, 3 min after the administration, the distribution was detected in the same manner as used for the NBD derivatives.

[2] = Distribution of sugar-modified AVP in organs (Test 1); assay type: in vivo, male SD rats; conditions: rats, i.v. 1 nmol/kg, 5 min after administration; concentration in organs and organ clearance as index (Figs. 1 and 2)
Description: as §1
The organ clearance under the above experimental conditions is considered as a measure of the speed at which the compound is incorporated into the organs. The kidney is an organ which functions to perform glomerular filtration for the production of urine. The renal clearance of low-molecular weight compounds, which are likely to undergo glomerular filtration, is generally larger than the clearance for other organs. Further, under the above experimental conditions, it was estimated from the results on ^14C-labeled inulin that the incorporation of about 0.6 ml/min/g was carried out by glomerular filtration. Larger values indicate the incorporation of drugs into the kidney through blood vessels in addition to the glomerular filtration.

[3] = rat, in vivo
Description: Under ether anaesthesia, rats (male SD rats, 6 to 8 weeks old) were intravenously injected with a specimen (1 nmol/kg), and the concentration of the specimen in plasma up to five min after the administration and the concentration of the specimen in organ 5 min after the administration were measured. Organ samples were processed in an automatic sample combustion equipment, and the total radioactivity were measured with a liquid scintillation counter to determine the drug level. The concentration of drug in organs and the organ clearance were used as organ selectivity index. The organ clearance was determined by the following equation. Organ clearance = (concentration in organ in 5 min after administration)/(area under plasma concentration-time curve up to 5 min after the administration) [formula]

[4] = rats, ^3H-labeled product, same manner as Test 1 (i.v. 1 nmol/kg, 5 min)

Structure (SMILES): COc1cccc2c1C(=O)c1c(O)c3c(c(O)c1C2=O)C[C@@](O)(C(=O)CO)C[C@@H]3O[C@H]1C[C@H](N)[C@H](O)[C@H](C)O1 [DXR, doxorubicin]
- Renal clearance ([1]; rats, DXR and derivatives: dose 50 nmol/kg, 3 min after administration): 0.54 ± 0.10 mL/min/g

Structure (SMILES): N=C(N)NCCC[C@H](NC(=O)[C@@H]1CCCN1C(=O)[C@@H]1CSSC[C@H](NC(=O)CCCCCCCCO[C@@H]2O[C@H](CO)[C@H](O)[C@H](O)[C@H]2O)C(=O)N[C@@H](Cc2ccc(O)cc2)C(=O)N[C@@H](Cc2ccccc2)C(=O)N[C@@H](CCC(N)=O)C(=O)N[C@@H](CC(N)=O)C(=O)N1)C(=O)NCC(N)=O [Gal-O-C8-AVP]
- renal selectivity [2]: the renal selectivity was the same as that for AVP

Structure (SMILES): CC[C@H](C)[C@@H]1NC(=O)[C@H](Cc2ccc(O)cc2)NC(=O)[C@@H](NC(=O)CCCCCCCCO[C@@H]2O[C@H](CO)[C@@H](O)[C@H](O)[C@H]2O)CSSC[C@@H](C(=O)N2CCC[C@H]2C(=O)N[C@@H](CC(C)C)C(=O)NCC(N)=O)NC(=O)[C@H](CC(N)=O)NC(=O)[C@H](CCC(N)=O)NC1=O [Glc-O-C8-Oxy]
- Hepatic clearance [3]: 0.08 ± 0.00 mL/min/g
- Renal clearance [3]: 1.05 ± 0.05 mL/min/g

Structure (SMILES): COc1cccc2c1C(=O)c1c(O)c3c(c(O)c1C2=O)C[C@@](O)(C(=O)COC(=O)CCCCCCCCS[C@@H]1O[C@H](CO)[C@@H](O)[C@H](O)[C@H]1O)C[C@@H]3O[C@H]1C[C@H](N)[C@H](O)[C@H](C)O1 [Glc-S-C8-COO-DXR, 14-[9-(1-thio-β-D-glucopyranosyl)nonanoyl]doxorubicin]
- formation of free DXR in plasma and kidney ([1]; rat, in vivo): could be confirmed

Structure (SMILES): N=C(N)NCCC[C@H](NC(=O)[C@@H]1CCCN1C(=O)[C@@H]1CSSC[C@H](NC(=O)CCCCCCCCO[C@H]2O[C@H](CO)[C@@H](O)[C@H](O)[C@@H]2O)C(=O)N[C@@H](Cc2ccc(O)cc2)C(=O)N[C@@H](Cc2ccccc2)C(=O)N[C@@H](CCC(N)=O)C(=O)N[C@@H](CC(N)=O)C(=O)N1)C(=O)NCC(N)=O [Man(α)-O-C8-AVP]
- renal selectivity [2]: the renal selectivity was the same as that for AVP

Structure (SMILES): N=C(N)NCCC[C@H](NC(=O)[C@@H]1CCCN1C(=O)[C@@H]1CSSC[C@H](NC(=O)CCCCCCCCO[C@@H]2O[C@H](CO)[C@@H](O)[C@H](O)[C@@H]2O)C(=O)N[C@@H](Cc2ccc(O)cc2)C(=O)N[C@@H](Cc2ccccc2)C(=O)N[C@@H](CCC(N)=O)C(=O)N[C@@H](CC(N)=O)C(=O)N1)C(=O)NCC(N)=O [Man-O-C8-AVP]
- renal selectivity [2]: high renal selectivity

Structure (SMILES): CC[C@H](C)[C@@H]1NC(=O)[C@H](Cc2ccc(O)cc2)NC(=O)[C@@H](NC(=O)CCCCCCCCO[C@@H]2O[C@H](CO)[C@@H](O)[C@H](O)[C@@H]2O)CSSC[C@@H](C(=O)N2CCC[C@H]2C(=O)N[C@@H](CC(C)C)C(=O)NCC(N)=O)NC(=O)[C@H](CC(N)=O)NC(=O)[C@H](CCC(N)=O)NC1=O [Man-O-C8-Oxy]
- Hepatic clearance [3]: 0.14 ± 0.02 mL/min/g
- Renal clearance [3]: 3.59 ± 0.17 mL/min/g

Structure (SMILES): NCCc1c[nH]c2ccccc12 [Tryptamine]
- Conc. in kidney [1, 4]: 3.5±0.3 % of dose/g
- Renal clearance [1, 4]: 0.63 ± 0.07 mL/min/g
